Values after ≈ are worked out from the molar mass of the structure shown.
Experiments:
Edwardsiella tarda = assay: Antimicrobial activity against Edwardsiella tarda QDIO-2 measured after 24 hrs by XTT assay; format: functional; details: QDIO-2, 24 h
Micrococcus luteus = assay: Antimicrobial activity against Micrococcus luteus QDIO-3 measured after 24 hrs by XTT assay; format: functional; details: QDIO-3, 24 h
Escherichia coli = assay: Antimicrobial activity against Escherichia coli EMBLC-1 measured after 24 hrs by XTT assay; format: functional; details: EMBLC-1, 24 h
Staphylococcus aureus = assay: Antimicrobial activity against Staphylococcus aureus EMBLC-2 measured after 24 hrs by XTT assay; format: functional; details: EMBLC-2, 24 h
Aeromonas hydrophila = assay: Antimicrobial activity against Aeromonas hydrophila QDIO-1 measured after 24 hrs by XTT assay; format: functional; details: QDIO-1, 24 h
Pseudomonas aeruginosa = assay: Antimicrobial activity against Pseudomonas aeruginosa QDIO-4 measured after 24 hrs by XTT assay; format: functional; details: QDIO-4, 24 h
Vibrio anguillarum = assay: Antimicrobial activity against Vibrio anguillarum QDIO-6 measured after 24 hrs by XTT assay; format: functional; details: QDIO-6, 24 h
Vibrio harveyi = assay: Antimicrobial activity against Vibrio harveyi QDIO-7 measured after 24 hrs by XTT assay; format: functional; details: QDIO-7, 24 h
Vibrio parahaemolyticus = assay: Antimicrobial activity against Vibrio parahaemolyticus QDIO-8 measured after 24 hrs by XTT assay; format: functional; details: QDIO-8, 24 h
Alternaria brassicae = assay: Antimicrobial activity against Alternaria brassicae QDAU-1 measured after 24 hrs by XTT assay; format: functional; details: QDAU-1, 24 h
[1] = tested on: Colletotrichum gloeosporioides; assay: Antimicrobial activity against Colletotrichum gloeosporioides QDAU-2 by XTT assay; format: functional
Fusarium graminearum = assay: Antimicrobial activity against Fusarium graminearum QDAU-4 measured after 24 hrs by XTT assay; format: functional; details: QDAU-4, 24 h
Gaeumannomyces graminis = assay: Antimicrobial activity against Gaeumannomyces graminis QDAU-3 measured after 24 hrs; format: functional; details: QDAU-3, 24 h
[2] = Toxicity in brine shrimp larvae assessed as lethality measured after 24 hrs by macroscopic analysis; details: artemia salina; read-out: LD50

Structure (SMILES)	MIC (Edwardsiella tarda) [µg/mL]	MIC (Micrococcus luteus) [µg/mL]	MIC (Escherichia coli) [µg/mL]	MIC (Staphylococcus aureus) [µg/mL]	MIC (Aeromonas hydrophila) [µg/mL]	MIC (Pseudomonas aeruginosa) [µg/mL]	MIC (Vibrio anguillarum) [µg/mL]	MIC (Vibrio harveyi) [µg/mL]	MIC (Vibrio parahaemolyticus) [µg/mL]	MIC (Alternaria brassicae) [µg/mL]	MIC [1] [µg/mL]	MIC (Fusarium graminearum) [µg/mL]	MIC (Gaeumannomyces graminis) [µg/mL]	LC50 at 24 h [2] [µg/mL]
C=C[C@@]1(C)CCc2c3c(cc(O)c2[C@@H]1O)C(C)(C)[C@H](O)CC3	> 32	16 (≈ 52.9 µM)	32 (≈ 106 µM)	> 32	> 32	4 (≈ 13.2 µM)	32 (≈ 106 µM)	> 32	32 (≈ 106 µM)	32 (≈ 106 µM)	32 (≈ 106 µM)	4 (≈ 13.2 µM)	32 (≈ 106 µM)	> 10
C=C[C@]1(C)C=C2C(=O)C=C3C(C)(C)CC[C@@H](O)[C@]3(O)[C@H]2CC1	> 32	16 (≈ 52.9 µM)	> 32	> 32	> 32	> 32	> 32	> 32	32 (≈ 106 µM)	32 (≈ 106 µM)	> 32	> 32	> 32	> 10
C=C[C@@]1(C)CCc2c(c(O)cc3c2CCCC3(C)C)C1	16 (≈ 59.2 µM)	> 32	> 32	8 (≈ 29.6 µM)	> 32	> 32	> 32	> 32	4 (≈ 14.8 µM)	> 32	> 32	> 32	8 (≈ 29.6 µM)	> 10
C=C[C@]1(C)C=C2C(=O)C=C3C(C)(C)CCC[C@]3(O)[C@@]2(O)CC1	> 32	4 (≈ 13.2 µM)	32 (≈ 106 µM)	> 32	> 32	32 (≈ 106 µM)	> 32	> 32	> 32	8 (≈ 26.5 µM)	> 32	2 (≈ 6.61 µM)	32 (≈ 106 µM)	> 10
C=C[C@]1(C)C=C2C(=O)C=C3C(C)(C)[C@H](O)CC[C@]3(O)[C@H]2CC1	4 (≈ 13.2 µM)	> 32	> 32	32 (≈ 106 µM)	16 (≈ 52.9 µM)	> 32	32 (≈ 106 µM)	8 (≈ 26.5 µM)	32 (≈ 106 µM)	> 32	> 32	> 32	> 32	> 10
C=C[C@@]1(C)CCc2c3c(cc(O)c2[C@H]1O)C(C)(C)[C@H](O)CC3	> 32	> 32	16 (≈ 52.9 µM)	32 (≈ 106 µM)	> 32	> 32	> 32	4 (≈ 13.2 µM)	> 32	> 32	32 (≈ 106 µM)	> 32	32 (≈ 106 µM)	> 10
C[C@@H]1[C@H](O)[C@@H](C)/C=C/C=C/C=C/C=C/C=C/C=C/C=C/[C@H](O[C@@H]2O[C@H](C)[C@@H](O)[C@H](N)[C@@H]2O)C[C@@H]2O[C@](O)(C[C@@H](O)C[C@@H](O)[C@H](O)CC[C@@H](O)C[C@@H](O)CC(=O)O[C@H]1C)C[C@H](O)[C@H]2C(=O)O [AMPHOTERICIN B]	–	–	–	–	–	–	–	–	–	32 (≈ 34.6 µM)	32 (≈ 34.6 µM)	8 (≈ 8.66 µM)	64 (≈ 69.3 µM)	–
O=C(N[C@H](CO)[C@H](O)c1ccc([N+](=O)[O-])cc1)C(Cl)Cl [CHLORAMPHENICOL]	8 (≈ 24.8 µM)	8 (≈ 24.8 µM)	4 (≈ 12.4 µM)	0.5 (≈ 1.55 µM)	4 (≈ 12.4 µM)	4 (≈ 12.4 µM)	0.5 (≈ 1.55 µM)	4 (≈ 12.4 µM)	1 (≈ 3.09 µM)	–	–	–	–	–

Reference: ChEMBL document CHEMBL3853292, “Aspewentins D-H, 20-Nor-isopimarane Derivatives from the Deep Sea Sediment-Derived Fungus Aspergillus wentii SD-310” (J Nat Prod, 2016)
